Test results: US4206125A, “5-[2-[(2,3-Dihydro-1,4-benzodioxan-2-ylmethyl)amino]-1-hydrox yethyl]-2-hydroxybenzoic acid derivatives” (Richardson-Merrell Inc., priority 1979, dated 1980)

Columns and labels:
[1] = test system: systolic blood pressure of spontaneously hypertensive rats (SHR); assay: Antihypertensive activity in spontaneously hypertensive rats (SHR); format: in vivo, rat; conditions: SHR Okomoto-Aoki strain; oral dose of 50 mg/kg; one hour following administration
Procedure: Antihypertensive activity is determined in spontaneously hypertensive rats (SHR) of the Okomoto-Aoki strain. Systolic blood pressure of the SHR is measured from the caudal artery by means of an indirect method utilizing a photocell transducer/trail cuff occluder system. Time response relationships are determined for each compound following an oral dose of 50 mg/kg. Data are expressed as mm of Hg decrease from control values. Statistical significance is determined using a 2 tailed "t" test comparing drug treatment response values to those obtained from concurrent vehicle treated animals. Under these conditions the compound 5-[2-[(2,3-dihydro-1,4-benzodioxan-2-ylmethyl)amino]-1-hydroxyethyl]-2-hydroxybenzamide lowered blood pressure by 24 mm of Hg one hour following administration of the drug substance.

β-Adrenergic receptor = molecular target: T1, β-Adrenergic receptor (Cavia porcellus, UniProt H0W3H1); assay: β-Adrenergic receptor blocking activity, isolated guinea pig atria, isoproterenol as agonist; format: cell-based; conditions: increase in rate, read-out: pA2 value (β-adrenergic receptor blocking activity) (converted)
T1 construct: isolated guinea pig atria preparation; from tissue; host or cells: isolated guinea pig atria
T1 sequence (H0W3H1 1-470): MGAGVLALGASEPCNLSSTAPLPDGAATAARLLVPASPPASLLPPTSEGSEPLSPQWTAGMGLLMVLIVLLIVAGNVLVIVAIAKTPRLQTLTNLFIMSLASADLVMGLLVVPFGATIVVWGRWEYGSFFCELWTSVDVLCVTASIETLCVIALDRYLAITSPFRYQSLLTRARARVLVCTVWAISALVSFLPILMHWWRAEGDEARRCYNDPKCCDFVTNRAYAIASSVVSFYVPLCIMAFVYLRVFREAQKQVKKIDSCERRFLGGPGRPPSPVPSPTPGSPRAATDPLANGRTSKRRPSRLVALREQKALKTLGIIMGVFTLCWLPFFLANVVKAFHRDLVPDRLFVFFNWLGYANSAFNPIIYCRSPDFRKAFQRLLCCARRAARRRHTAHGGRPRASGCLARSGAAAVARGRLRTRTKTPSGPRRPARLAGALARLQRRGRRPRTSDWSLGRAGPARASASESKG
Procedure: β-Adrenergic receptor blocking activity is determined in vitro by performing cumulative dose-response experiments in the isolated guinea pig atria preparation using isoproterenol as the agonist. The response (increase in rate) of the guinea pig atria preparation in the presence of logarithmically increasing concentrations of the compounds being tested are expressed as percent of the maximal attainable response. Relative antagonistic potency is expressed as a pA2 value, as defined above.

α-Adrenergic receptor = α-Adrenergic receptor blocking activity, isolated rabbit aortic strip, norepinephrine as agonist; format: cell-based; conditions: contractile response
Procedure: α-Adrenergic receptor blocking activity is determined in vitro by performing cumulative dose-response experiments in the isolated rabbit aortic strip preparation using norepinephrine as the agonist. The contractile response of the rabbit strip preparation in the presence of logarithmically increasing concentrations of the compounds being tested are expressed as percent of the maximal attainable response. Relative antagonistic potency is expressed as a pA2 value.

In the case of `NC(=O)c1cc(C(O)CNCC2COc3ccccc3O2)ccc1O` (stereo not drawn) [5-[2-[(2,3-dihydro-1,4-benzodioxan-2-ylmethyl)amino]-1-hydroxyethyl]-2-hydroxybenzamide], the “systolic blood pressure decrease from control values” [1] is reported as 24 mm of Hg, the Kb (β-Adrenergic receptor) is reported as 1450 nM and the “pA2 value (α-adrenergic receptor blocking activity)” value (α-Adrenergic receptor) is reported as 6.20.
